Test results reported in patent EP0663826B1, “AMINO ACIDS CONTAINING PARENTERAL FORMULATIONS FOR THE TREATMENT OF HYPOTENSION AND RELATED PATHOLOGIES” (BOARD OF REGENTS THE UNIVERSITY OF TEXAS SYSTEM, priority 1991, dated 1993).

How the values were obtained:
[1] = system: ^51Cr-labeled Raji Target cells; test: IL-2 mediated lymphokine activated killer cell activity in vitro; format: cell-based, human
[2] = system: Actinomycin D-Treated L929 Cells; test: Cytolytic activity of rh-TNF against L929 cells; format: cell-based, murine; conditions: for TNF Activity: without NMMA 594.5
Procedure: TNF bioactivity was measured by the cytotoxicity towards murine L929 cells, in vitro. […]

[3] = system: hypotension associated with the administration of TNF in the dog; test: TNF-induced hypotension in the dog; format: in vivo, dogs
Procedure: Recombinant human TNF, specific activity 2 x 10^7 units/mg, was from the Dainippon Chemical Corporation, Tokyo, Japan. TNF was administered at a dose of 10 µg//kg in a volume of 10 ml of phosphate buffered saline containing 17 mg/ml of dog albumin. […] Arginine was obtained from Sigma Chemical Company, St. Louis, Mo.
Four conditioned mongrel dogs, 2 males and 2 females, weighing 28 to 30 kg, were studied. Care of the animals were in accordance with the recommendations of the American Association for Accreditation of Laboratory Animals [DHEW(DHHS) publication no. (NIH) 78-23, revised, 1978]. On the day of the experiment, the dogs were fasted overnight. They were anesthetized with phenobarbital (25 mg/kg). The animals were then intubated orally with a #10 fr. endotracheal tube and ventilated with a Harvard pump ventilator at a rate of 14 breaths per minute and a tidal volume of 15 ml/kg. An arterial line was percutaneously placed in the femoral artery on the day of the experiment.
Mean (electronic) and phasic systemic arterial pressures (SAP) were continuously recorded on a Hewlett-Packard recording system (model 7758B) using strain gauge manometers (Hewlett-Packard model 1290A) which were connected to the arterial line. Heart rate (HR) was determined from an EKG tracing and continuously recorded on the Hewlett-Packard recording system. Oxyhemoglobin saturation (SaO2) was obtained using a pulse oximeter (BIOX 111, Boulder, CO). Continuous time-series records of SAP, HR, and SaO2 were obtained using a Lab Master analog-to-digital convertor (16 channel, 12 bit, 30 kHz; Scientific Solutions, Inc.) sampling at 55 Hz and storing the 6 sec averages on a magnetic disk.

[4] = system: endotoxin-induced shock in dogs; test: Endotoxin-induced hypotension in dogs (with nitroglycerin and control dogs); format: in vivo
Procedure: Animals: Studies were carried out on 12 conditioned mongrel dogs (9 males and 3 females) weighing 22-32 kg (avg=25.3 kg). Animal care was in accordance with the recommendations of the American Association for Accreditation of Laboratory Animal Care, and met all standards prescribed by the Guide for the Care and Use of Laboratory Animals (Guide for the Care and Use of Laboratory Animals (1978) Dept. of Health, Education and Welfare, Washington, D.C. (Publ. No. 78-23). Animal protocols were approved by The University of Texas Animal Welfare committee. The dogs were fasted overnight prior to the day of experimentation. They were anesthetized with sodium pentobarbital (25 mg/kg i.v.). Dogs were then endotracheally intubated and ventilated with a piston-driven respirator (Harvard instruments) using room air at a tidal volume of 15 ml/kg and at a rate of 12 to 14 breaths per minute, adjusted to achieve a normal arterial pH and pCO2 (Instrumentation Laboratories lL1302 pH/Blood Gas Analyzer). Catheters were placed percutaneously into the femoral and pulmonary arteries; In the latter, a flow-directed thermal-dilation catheter was used (Abbott Critical Care Systems).
Physiologic measurements: Mean SAP and heart rate were continuously monitored (Parametron 7048 Monitoring System, Roche) and stored on a magnetic disk using an analog-to-digital converter (Scientific Solutions, Inc.). Cardiac output (CO) was determined as the mean of six measurements by thermal-dilution. Systemic vascular resistance was calculated as (SAP X80)/CO and expressed as dynes-sec/cm^5 (kg/s·cm^4).
Protocol: After the blood pressure and heart rate stabilized, endotoxin (40 µg/kg, in 10 ml of phosphate-buffered saline (PBS), pH 7.4) was infused i.v. over 2 minutes. This dose of endotoxin typically induces severe and often lethal cardiovascular collapse in the dog. Blood pressure was monitored, and when either SAP fell below 60 mm Hg or a stable nadir in systemic arterial pressure (SAP) was maintained for 10 minutes, L-NMA was administered (20 mg/kg in 5 ml of PBS i.v. over 1 min.). In most experiments, L-arginine (400 mg/kg in 20 ml PBS) was administered ten minutes later by i.v. infusion over 2 minutes. In control experiments, dogs without prior exposure to endotoxin received L-NMA alone. To simulate the hypotension observed in dogs receiving endotoxin, one group of dogs received a continuous i.v. infusion of nitroglycerin (2 mg/ml) at a rate adjusted to maintain the SAP at 60-70 mm Hg. Nitroglycerin-treated dogs then received L-NMA (20 mg/kg) and 20 minutes later L-arginine was administered ([…]).
Statistics: Statistical significance was evaluated using Student's test and either a one-tailed or two-tailed analysis as appropriate for comparisons.

SMILES: CNC(=N)NCCC[C@H](N)C(=O)O [NMMA, N^ω-methyl-L-arginine]
- % Target Cell Lysis ([1]; [NMMA] 2.0 mM, same effector cells, without NMMA 66.1 ± 9.5): 75.1 ± 4.1%
- effect on the proliferation phase or the lytic phase of human LAK cells exposed to IL-2 ([1]; in vitro): did not alter
- TNF Activity ([2]; [NMMA] 0.125 mM): 536.9 Units/ml
- TNF Activity ([2]; [NMMA] 0.250 mM): 538.2 Units/ml
- TNF Activity ([2]; [NMMA] 0.500 mM): 562.4 Units/ml
- TNF Activity ([2]; [NMMA] 1.0 mM): 415.7 Units/ml
- effect on the cytolytic effect of TNF towards tumor cells in vitro ([2]; murine L929 cells): did not alter
- duration of NMMA-induced bradycardia ([3]; NMMA alone to untreated dogs (n=3)): 31 min
- blood pressure increase ([3]; NMMA alone to untreated dogs (n=3), within 2 minutes after infusion): 12 mm Hg
- blood pressure increase ([3]; NMMA in dogs infused with nitroglycerin 28 µg/kg/minute IV): 14 mm
- increase in blood pressure after administration of NMMA ([3]; dog with severe TNF hypotension, 4.4 mg NMMA/kg, Figure 4a): 80 mm Hg
- time to pressor effect of NMMA ([3]; dogs made hypotensive with TNF): ≤ 2 min
- time SAP maintained greater than 100 mm Hg by second dose of L-NMA ([4]; Figure 6 dog, endotoxin): 2 h
- time blood pressure was maintained by the first dose of L-NMA ([4]; Figure 6 dog, endotoxin): 48 min
- increase in SAP ([4]; Figure 6 dog, endotoxin hypotension 47 mm Hg, L-NMA 20 mg/kg, within 10 min): 73 mm Hg
- Cardiac Output ([4]; Study 1: Endotoxin-treated dogs (n=4), means ± S.E., same sequence, baseline 2.99 ± 0.32): 2.03 ± 0.32 L/min
- Heart Rate ([4]; Study 1: Endotoxin-treated dogs (n=4), means ± S.E., same sequence, baseline 119.5 ± 6.0): 123.3 ± 4.8 beats/min
- Systemic Vascular Resistance ([4]; Study 1: Endotoxin-treated dogs (n=4), means ± S.E., same sequence, baseline 3565 ± 454): 4462 ± 552 dynes-sec/cm^5
- Systemic Arterial Pressure ([4]; Study 1: Endotoxin-treated dogs (n=4), means ± S.E., sequence endotoxin 40 µg/kg, L-NMA 20 mg/kg, 10 min later L-arginine 400 mg/kg (measured 2 min later), baseline 128.3 ± 9.4): 107.3 ± 9.6 mmHg
- Systemic Vascular Resistance ([4]; Study 1: Endotoxin-treated dogs (n=4), means ± S.E., value in brackets): 4.462 ± 0.552 Kg/s·cm^4
- Cardiac Output ([4]; Study 2: Nitroglycerin-treated dogs (n=3), means ± S.E., baseline 3.14 ± 0.21): 3.85 ± 0.80 L/min
- Heart Rate ([4]; Study 2: Nitroglycerin-treated dogs (n=3), means ± S.E., baseline 143.7 ± 12.1): 191.7 ± 35.0 beats/min
- Systemic Vascular Resistance ([4]; Study 2: Nitroglycerin-treated dogs (n=3), means ± S.E., baseline 3294 ± 74): 1858 ± 399 dynes-sec/cm^5
- Systemic Arterial Pressure ([4]; Study 2: Nitroglycerin-treated dogs (n=3), means ± S.E., continuous nitroglycerin (2 mg/ml) titrated to SAP 65 mm Hg, then L-NMA 20 mg/kg, then L-arginine, baseline 129.3 ± 10.2): 81.8 ± 3.5 mmHg
- Systemic Vascular Resistance ([4]; Study 2: Nitroglycerin-treated dogs (n=3), value in brackets): 1.858 ± 0.399 Kg/s·cm^4
- increase in SAP ([4]; control dogs not treated with endotoxin, L-NMA alone): 24.8 ± 2.7 mm Hg
- Systemic Arterial Pressure ([4]; control dogs without endotoxin (n=4), means±S.E., L-NMA, baseline 129.0±10.9): 153.8±11.4 mm Hg
- Cardiac Output ([4]; control dogs without endotoxin (n=4), means±S.E., baseline 3.54±0.68): 2.12 ± 0.26 L/min
- Heart Rate ([4]; control dogs without endotoxin (n=4), means±S.E., baseline 121±17.9): 82.5±6.1 beats/min
- Systemic Vascular Resistance ([4]; control dogs without endotoxin (n=4), means±S.E., baseline 3115±347): 5967±523 dynes-sec/cm^5
- Systemic Vascular Resistance ([4]; control dogs without endotoxin (n=4), value in brackets): 5.967±0.523 Kg/cm^4·s
- change in blood pressure ([4]; dogs with blood pressure reduced to 65 mm Hg by continuous i.v. nitroglycerin, L-NMA 20mg/kg): 17.1±5.0 mm Hg
- duration normal blood pressure maintained ([4]; endotoxin-treated dog, additional dose of L-NMA (20 mg/kg) when blood pressure began to decrease): at least 2 hours
- duration normal blood pressure restored ([4]; endotoxin-treated dog, single i.v. dose of L-NMA (20 mg/kg)): 30 to 60 min
- HR and CO ([4]; endotoxin-treated dogs, L-NMA 20 mg/kg): unchanged
- time to reversal of hypotension by L-NMA ([4]; endotoxin-treated dogs, L-NMA 20 mg/kg iv): ≤ 1.5 min
- increase in SAP ([4]; endotoxin-treated dogs, L-NMA 20 mg/kg, p<0.01): 47.8 ± 6.8 mm Hg
- decrease in cardiac output (Δ) ([4]; two of the four control dogs, L-NMA): ≥ 1.5 L/min
